ChEMBL document CHEMBL6071135, “New resorcylic acid derivatives of Lysimachia tengyuehensis against MRSA and VRE by interfering with bacterial metabolic imbalance” (Eur J Med Chem, 2024)
Converted amounts (≈) assume the structure as drawn. The source made the active and inactive calls. The rule behind the calls is not given here.

How the values were obtained:
Staphylococcus aureus [1] = experiment: Antibacterial activity against methicillin-resistant Staphylococcus aureus measured after 24 hrs by CLSI based broth microdilution method; assay type: functional
Enterococcus faecalis [2] = experiment: Bactericidal activity against vancomycin-resistant Enterococcus faecalis ATCC51299 measured after 24 hrs by CLSI based broth microdilution method; assay type: functional
Staphylococcus aureus [3] = experiment: Bactericidal activity against methicillin-resistant Staphylococcus aureus measured after 24 hrs by CLSI based broth microdilution method; assay type: functional
Enterococcus faecalis [4] = experiment: Antibacterial activity against vancomycin-resistant Enterococcus faecalis ATCC51299 measured after 24 hrs by CLSI based broth microdilution method; assay type: functional
Staphylococcus aureus [5] = experiment: Antibacterial activity against methicillin resistant Staphylococcus aureus infected in female Kunming mouse model of skin infection assessed as increase in neovascularization at 8 mg/kg administered daily pre-infected for 4 hrs followed by compound administration for 7 days; assay type: functional, organism-based; conditions: time 7.0 day
Staphylococcus aureus [6] = experiment: Antibacterial activity against methicillin resistant Staphylococcus aureus infected in female Kunming mouse model of skin infection assessed as reduction in inflammatory cell infiltration at 8 mg/kg administered daily pre-infected for 4 hrs followed by compound administration for 7 days; assay type: functional, organism-based; conditions: time 7.0 day
[7] = Toxicity in Kunming mouse assessed as morphological abnormalities at 8 mg/kg administered daily and measured after 7 days; assay type: organism-based; conditions: in vivo, 168 h, time 7 day
Staphylococcus aureus [8] = experiment: Bactericidal activity against methicillin-resistant Staphylococcus aureus assessed as reduction in number of bacteria at 2 times MIC measured within 1 hr by time-kill assay; assay type: functional, organism-based
Staphylococcus aureus [9] = experiment: Antibacterial activity against methicillin resistant Staphylococcus aureus infected in female Kunming mouse model of skin infection assessed as reduction in bacterial load of wound at 8 mg/kg administered daily pre-infected for 4 hrs followed by compound administration for 7 days; assay type: functional, organism-based; conditions: time 7.0 day
Staphylococcus aureus [10] = experiment: Antibacterial activity against methicillin resistant Staphylococcus aureus infected in female Kunming mouse model of skin infection assessed as suppression of purulent secretion at 8 mg/kg administered daily pre-infected for 4 hrs followed by compound administration for 7 days; assay type: functional, organism-based; conditions: time 7.0 day
Staphylococcus aureus [11] = experiment: Antibacterial activity against methicillin resistant Staphylococcus aureus infected in female Kunming mouse model of skin infection assessed as reduction in wound size at 8 mg/kg administered daily pre-infected for 4 hrs followed by compound administration for 7 days; assay type: functional, organism-based; conditions: time 7.0 day
Enterococcus faecalis [12] = experiment: Drug resistance, ratio of MIC for vancomycin-resistant Enterococcus faecalis ATCC51299 after 20 days exposure to MIC for vancomycin-resistant Enterococcus faecalis ATCC51299 during first exposure; assay type: functional; conditions: time 20 day
Enterococcus faecalis [13] = experiment: Bactericidal activity against vancomycin-resistant Enterococcus faecalis ATCC51299 assessed as reduction in number of bacteria at 2 times MIC measured within 1 hr by time-kill assay; assay type: functional, organism-based

Which MIC (Staphylococcus aureus [1]) does the source give for COc1cccc(OC)c1C(=O)N[C@@H]1C(=O)N2[C@@H]1SC(C)(C)[C@@H]2C(=O)O [METHICILLIN] here?
Its MIC is greater than 128 µg/mL.

For CCCCCCCCCCCc1cc(O)cc(O)c1C(=O)O, which MBC (Enterococcus faecalis [2]) is on record?
Its MBC is 8 µg/mL (≈ 25.9 µM).

And the MIC (Staphylococcus aureus [1])?
Its MIC is 8 µg/mL (≈ 25.9 µM).

And the MBC (Staphylococcus aureus [3])?
The MBC was 8 µg/mL (≈ 25.9 µM).

What about the MIC (Enterococcus faecalis [4]) of the same compound?
The MIC was 8 µg/mL (≈ 25.9 µM).

With CN[C@H](CC(C)C)C(=O)N[C@H]1C(=O)N[C@@H](CC(N)=O)C(=O)N[C@H]2C(=O)N[C@H]3C(=O)N[C@H](C(=O)N[C@H](C(=O)O)c4cc(O)cc(O)c4-c4cc3ccc4O)[C@H](O)c3ccc(c(Cl)c3)Oc3cc2cc(c3O[C@@H]2O[C@H](CO)[C@@H](O)[C@H](O)[C@H]2O[C@H]2C[C@](C)(N)[C@H](O)[C@H](C)O2)Oc2ccc(cc2Cl)[C@H]1O [VANCOMYCIN] as the compound, how does the Activity (Staphylococcus aureus [5]) read?
Its Activity is “Active”.

And the Activity (Staphylococcus aureus [6])?
The Activity was “Active”.

And the Activity [7]?
The Activity was “Non-Toxic”.

What about the Activity (Staphylococcus aureus [8]) of the same compound?
The Activity was “inactive”.

And the Activity (Staphylococcus aureus [9])?
Its Activity is “Active”.

What about the Activity (Staphylococcus aureus [10]) of the same compound?
The Activity was “Active”.

And the Activity (Staphylococcus aureus [11])?
Its Activity is “Active”.

For CCCCCCCCCCCCCc1cc(O)cc(O)c1C(=O)O, which MBC (Enterococcus faecalis [2]) is on record?
The MBC was 8 µg/mL (≈ 23.8 µM).

What about the MIC (Staphylococcus aureus [1]) of the same compound?
The MIC was 4 µg/mL (≈ 11.9 µM).

And the MBC (Staphylococcus aureus [3])?
The MBC was 4 µg/mL (≈ 11.9 µM).

What about the MIC (Enterococcus faecalis [4]) of the same compound?
Its MIC is 8 µg/mL (≈ 23.8 µM).

With CCCCCCCCCCCCCCc1cc(O)cc(O)c1C(=O)O as the compound, how does the MBC (Enterococcus faecalis [2]) read?
Its MBC is 8 µg/mL (≈ 22.8 µM).

And the MIC (Staphylococcus aureus [1])?
Its MIC is 4 µg/mL (≈ 11.4 µM).

What about the MBC (Staphylococcus aureus [3]) of the same compound?
Its MBC is 4 µg/mL (≈ 11.4 µM).

What about the MIC (Enterococcus faecalis [4]) of the same compound?
Its MIC is 4 µg/mL (≈ 11.4 µM).

What does the source list for CCCCCCCCCCCCc1cc(O)cc(O)c1?
MBC (Enterococcus faecalis [2]): 4 µg/mL (≈ 14.4 µM); MIC (Staphylococcus aureus [1]): 8 µg/mL (≈ 28.7 µM); MBC (Staphylococcus aureus [3]): 8 µg/mL (≈ 28.7 µM); MIC (Enterococcus faecalis [4]): 4 µg/mL (≈ 14.4 µM)

For CCCCCCCCCCCCCc1cc(O)cc(O)c1, which MBC (Enterococcus faecalis [2]) is on record?
The MBC was 4 µg/mL (≈ 13.7 µM).

And the MIC (Staphylococcus aureus [1])?
Its MIC is 4 µg/mL (≈ 13.7 µM).

And the MBC (Staphylococcus aureus [3])?
The MBC was 4 µg/mL (≈ 13.7 µM).

And the MIC (Enterococcus faecalis [4])?
The MIC was 4 µg/mL (≈ 13.7 µM).

For CCCCCCCCCCCCc1cc(O)cc(O)c1C(=O)O, which MBC (Enterococcus faecalis [2]) is on record?
The MBC was 4 µg/mL (≈ 12.4 µM).

What about the MIC (Staphylococcus aureus [1]) of the same compound?
The MIC was 8 µg/mL (≈ 24.8 µM).

What about the MBC (Staphylococcus aureus [3]) of the same compound?
Its MBC is 8 µg/mL (≈ 24.8 µM).

What about the MIC (Enterococcus faecalis [4]) of the same compound?
Its MIC is 4 µg/mL (≈ 12.4 µM).

With CC1(C)S[C@@H]2[C@H](NC(=O)[C@H](N)c3ccccc3)C(=O)N2[C@H]1C(=O)O [AMPICILLIN] as the compound, how does the “fold change (FC)” value (Enterococcus faecalis [12]) read?
Its value is 4.

What about the MIC (Enterococcus faecalis [4]) of the same compound?
The MIC was 2 µg/mL (≈ 5.72 µM).

And the Activity (Enterococcus faecalis [13])?
Its Activity is “inactive”.
